“And” between values parts separate entries of the source, which are not always exact repeats. Equal entries are not always repeated. Where two headings read alike, the source gives them in different places.
Columns and labels:
[1] = test system: A. baumannii 4106 (AB4106); test: Broth microdilution, colistin potentiation; type: cell-based
Experimental: (§1) Broth microdilution method for measurement of colistin potentiation: Bacteria were cultured for 4 to 6 hours in CAMHB and diluted to 1.04×10^6 CFU/mL for AB 4106 and 1.96×10^6 CFU/mL for KP B9 in fresh CAMHB. To aliquots (4 mL) was added compound from stock solutions in DMSO. One aliquot was not dosed to allow measurement of the colistin MIC in the absence of compound. A 1 mL aliquot of each sample was dosed with colistin, and from this 200 μL was dispensed into the first row of a 96-well microtiter plate in which all but the final row of subsequent wells was prefilled with 100 μL of the corresponding compound dosed bacterial suspension The final row was filled with media to act as a sterility control and blank. Row one wells were mixed 6-7 times, then, 100 μL was withdrawn and transferred to row two. Row two wells were mixed 6-7 times followed by a 100 μL transfer from row two to row three. This procedure was used to serially dilute the rest of the rows of the microtiter plate, excluding the last prefilled row, which was used to measure growth in the presence of compound alone. Plates were then sealed with GLAD
(§2) Press'n Seal and incubated under stationary conditions at 37° C. […] MIC values were determined as the minimum concentration required to achieve 90% growth inhibition compared to growth in untreated wells.

K. pneumoniae B9 (KPB9) = test: Broth microdilution, colistin potentiation; type: cell-based; design: Colistin MIC against KPB9: unit not given here; details: for ability to break colistin resistance, KPB9: compound at 500 nM
Experimental: as §1, §2

AB 4106 = test: Broth microdilution, standalone MIC of compound; type: cell-based, A. baumannii; details: standalone, no colistin, read-out: MIC of compound alone, AB 4106
Experimental: Broth microdilution method for the determination of minimum inhibitory concentrations: Bacteria were cultured for 4 to 6 hours in CAMHB and subcultured to 1.04×10^6 CFU/mL for AB 4106 and 1.96×10^6 CFU/mL for KP B9 in fresh CAMHB. To aliquots (1 mL) was added compound from stock solutions in DMSO, such that the compound concentration equaled the highest concentration tested. Samples were then dispensed (200 μL) into the first row of a 96-well microtiter plate in which all but the final row of subsequent wells were prefilled with 100 μL of the untreated bacterial subculture. The final row was filled with media to act as a sterility control and blank. Row one wells were mixed 6-7 times, then, 100 μL was withdrawn and transferred to row two. Row two wells were mixed 6-7 times followed by a 100 μL transfer from row two to row three. This procedure was used to serially dilute the rest of the rows of the microtiter plate, excluding the last prefilled row, which was used to measure growth in the absence of compound. Plates were then sealed with GLAD Press'n Seal and incubated under stationary conditions at 37 C. […] MIC values were determined as the minimum concentration required to achieve 90% growth inhibition compared to growth in untreated wells.

AB 3941 = test: Colistin potentiation, colistin-resistant isolate panel; type: cell-based, A. baumannii; details: for Colistin MIC against AB 3941 / Colistin MIC fold reduction, AB 3941: compound at 5 μM
AB 3942 = test: as above; type: cell-based, A. baumannii; details: for Colistin MIC against AB 3942 / Colistin MIC fold reduction, AB 3942: compound at 5 μM
AB 4112 = test: as above; type: cell-based, A. baumannii; details: for Colistin MIC against AB 4112 / Colistin MIC fold reduction, AB 4112: compound at 5 μM
AB 4119 = test: as above; type: cell-based, A. baumannii; details: for Colistin MIC against AB 4119 / Colistin MIC fold reduction, AB 4119: compound at 5 μM
AB 17978 mcr-1 = test: as above; type: cell-based, A. baumannii; details: for Colistin MIC against AB 17978 mcr-1 / Colistin MIC fold reduction, AB 17978 mcr-1: compound at 5 μM
AB4106 and KPB9 = test: Initial screen for colistin resistance suppression, statements in words for both strains; type: cell-based, A. baumannii and K. pneumoniae; details: compound at 5 μM
Experimental: as §1, §2

[2] = compound at 5 μM, colistin alone 2048 μg/mL
[3] = in presence of compound at 1 μM
[4] = in presence of compound at 3 μM
[5] = in presence of compound at 5 μM

Cc1ccc(NC(=O)c2cc(Cl)ccc2O)cc1C [Compound 31]
Colistin MIC fold reduction, AB 4106 [1, 2]: 32 fold | Colistin MIC against AB 4106 ([1]; compound at 5 μM, text of b125): 64 | Colistin MIC against KPB9 (K. pneumoniae B9 (KPB9); compound at 5 μM): 16 | MIC (AB 4106; Acinetobacter baumannii, 16 h): > 200 µM

O=C(Nc1cc(C(F)(F)F)cc(C(F)(F)F)c1Br)c1cc(Cl)ccc1O [Compound 24]
Colistin MIC fold reduction, AB 4106 ([1]; compound at 1 μM): 512 fold | Colistin MIC fold reduction, AB 4106 ([1]; compound at 3 μM): 2048 fold | Colistin MIC fold reduction, AB 4106 [1, 2]: 4096 fold | Colistin MIC against AB 4106 [1, 3]: 4 µg/mL | Colistin MIC against AB 4106 [1, 4]: 1 µg/mL | Colistin MIC against AB 4106 [1, 5]: 1 µg/mL and 0.5 µg/mL | MIC (AB 4106): >200 µM | Colistin MIC against AB 3941 (AB 3941): 1 µg/mL | Colistin MIC against AB 3942 (AB 3942): 0.5 µg/mL | Colistin MIC against AB 4112 (AB 4112): 0.25 µg/mL | Colistin MIC against AB 4119 (AB 4119): 0.125 µg/mL | Colistin MIC against AB 17978 mcr-1 (AB 17978 mcr-1): 0.25 µg/mL

O=C(Nc1ccc(F)cc1C(F)(F)F)c1cc(Cl)ccc1O [Compound 27]
Colistin MIC fold reduction, AB 4106 [1, 2]: 256 fold | Colistin MIC against KPB9 (K. pneumoniae B9 (KPB9); compound at 5 μM): 1 | MIC (AB 4106; Acinetobacter baumannii, 16 h): > 200 µM

O=C(Nc1cc(C(F)(F)F)ccc1F)c1cc(Cl)ccc1O [Compound 28]
Colistin MIC fold reduction, AB 4106 ([1]; compound at 1 μM): 256 fold | Colistin MIC fold reduction, AB 4106 ([1]; compound at 3 μM): 1024 fold | Colistin MIC fold reduction, AB 4106 [1, 2]: 1024 fold | Colistin MIC against AB 4106 [1, 3]: 8 µg/mL | Colistin MIC against AB 4106 [1, 4]: 2 µg/mL | Colistin MIC against AB 4106 [1, 5]: 2 µg/mL | MIC (AB 4106): >200 µM | Colistin MIC against AB 3941 (AB 3941): 2 µg/mL | Colistin MIC against AB 3942 (AB 3942): 2 µg/mL | Colistin MIC against AB 4112 (AB 4112): 2 µg/mL | Colistin MIC against AB 4119 (AB 4119): 1 µg/mL | Colistin MIC against AB 17978 mcr-1 (AB 17978 mcr-1): 0.25 µg/mL | Colistin potentiation activity in words, compared to IMD-0354 (AB4106 and KPB9): activity equivalent to IMD-0354

O=C(Nc1cc(Br)cc(Br)c1)c1cc(I)ccc1O [Compound 52, N-(3,5-dibromophenyl)-2-hydroxy-5-iodobenzamide]
Colistin MIC fold reduction, AB 4106 ([1]; compound at 1 μM): 256 fold | Colistin MIC fold reduction, AB 4106 ([1]; compound at 3 μM): 1024 fold | Colistin MIC fold reduction, AB 4106 [1, 2]: 2048 fold | ability to break colistin resistance, KPB9 (K. pneumoniae B9 (KPB9)): retained the ability to break colistin resistance | MIC (AB 4106; Acinetobacter baumannii, 16 h): > 200 µM | Colistin MIC fold reduction, AB 3941 (AB 3941): (1024) fold | Colistin MIC fold reduction, AB 3942 (AB 3942): (≥4096) fold | Colistin MIC fold reduction, AB 4112 (AB 4112): (2048) fold | Colistin MIC fold reduction, AB 4119 (AB 4119): (512) fold | Colistin MIC fold reduction, AB 17978 mcr-1 (AB 17978 mcr-1): (256) fold

O=C(Nc1cc(C(F)(F)F)cc(C(F)(F)F)c1)c1cc(I)ccc1O [Compound 10]
Colistin MIC fold reduction, AB 4106 ([1]; compound at 1 μM): 128 fold | Colistin MIC fold reduction, AB 4106 ([1]; compound at 3 μM): 1024 fold | Colistin potentiation activity in words, AB4106 ([1]; compound at 5 μM): superior activity to IMD-0354 | Colistin MIC fold reduction, AB 4106 [1, 2]: 4096 fold | Colistin potentiation activity in words, KPB9 (K. pneumoniae B9 (KPB9); compound at 5 μM): equipotent activity | MIC (AB 4106; Acinetobacter baumannii, 16 h): > 200 µM | Colistin potentiation activity in words, compared to IMD-0354 (AB4106 and KPB9): essentially equipotent activity to IMD-0354

O=C(Nc1cc(C(F)(F)F)cc(C(F)(F)F)c1)c1ccccc1O [Compound 6]
Colistin MIC fold reduction, AB 4106 ([1]; compound at 3 μM): 512 fold | Colistin MIC fold reduction, AB 4106 [1, 2]: 512 fold | MIC (AB 4106; Acinetobacter baumannii, 16 h): > 200 µM | Colistin potentiation activity in words, compared to IMD-0354 (AB4106 and KPB9): essentially equipotent activity to IMD-0354

Nc1cc(NC(=O)c2cc(Cl)ccc2O)ccc1F [Compound 36, N-(3-amino-4-fluorophenyl)-5-chloro-2-hydroxybenzamide]
Colistin MIC fold reduction, AB 4106 [1, 2]: ≤ 16 fold | MIC (AB 4106; Acinetobacter baumannii, 16 h): > 200 µM | Colistin potentiation activity in words, compared to IMD-0354 (AB4106 and KPB9): Neither compound displayed significant activity

O=C(Nc1cc(C(F)(F)F)cc(C(F)(F)F)c1)c1cc(-c2ccccc2)ccc1O [Compound 13]
Colistin MIC fold reduction, AB 4106 ([1]; compound at 1 μM): 32 fold | Colistin MIC fold reduction, AB 4106 ([1]; compound at 3 μM): 256 fold | Colistin MIC fold reduction, AB 4106 [1, 2]: 512 fold | Colistin MIC against AB 4106 [1, 3]: 64 µg/mL | Colistin MIC against AB 4106 [1, 4]: 8 µg/mL | Colistin MIC against AB 4106 [1, 5]: 4 µg/mL | MIC (AB 4106): >200 µM | Colistin MIC against AB 3941 (AB 3941): 16 µg/mL | Colistin MIC against AB 3942 (AB 3942): 32 µg/mL | Colistin MIC against AB 4112 (AB 4112): 8 µg/mL | Colistin MIC against AB 4119 (AB 4119): 2 µg/mL | Colistin MIC against AB 17978 mcr-1 (AB 17978 mcr-1): 4 µg/mL

COc1ccc(NC(=O)c2cc(Cl)ccc2O)cc1 [Compound 38]
Colistin MIC fold reduction, AB 4106 [1, 2]: ≤ 16 fold | MIC (AB 4106; Acinetobacter baumannii, 16 h): > 200 µM | Colistin potentiation activity in words, compared to IMD-0354 (AB4106 and KPB9): abolished activity

O=C(Nc1cc(Cl)cc(Cl)c1)c1cc(I)ccc1O [Compound 51]
Colistin MIC fold reduction, AB 4106 ([1]; compound at 1 μM): 512 fold | Colistin MIC fold reduction, AB 4106 ([1]; compound at 3 μM): 2048 fold | Colistin MIC fold reduction, AB 4106 [1, 2]: 2048 fold | ability to break colistin resistance, KPB9 (K. pneumoniae B9 (KPB9)): retained the ability to break colistin resistance | MIC (AB 4106; Acinetobacter baumannii, 16 h): > 200 µM | Colistin MIC fold reduction, AB 3941 (AB 3941): (1024) fold | Colistin MIC fold reduction, AB 3942 (AB 3942): (≥4096) fold | Colistin MIC fold reduction, AB 4112 (AB 4112): (2048) fold | Colistin MIC fold reduction, AB 4119 (AB 4119): (2048) fold | Colistin MIC fold reduction, AB 17978 mcr-1 (AB 17978 mcr-1): (512) fold

Cc1ccc(NC(=O)c2cc(Cl)ccc2O)cc1Br [Compound 32]
Colistin MIC fold reduction, AB 4106 [1, 2]: 32 fold | Colistin MIC against KPB9 (K. pneumoniae B9 (KPB9); compound at 5 μM): 8 | MIC (AB 4106; Acinetobacter baumannii, 16 h): > 200 µM

O=C(Nc1cc(C(F)(F)F)cc(C(F)(F)F)c1)c1ccc(C(F)(F)F)cc1O [Compound 15]
Colistin MIC fold reduction, AB 4106 ([1]; compound at 1 μM): 128 fold | Colistin MIC fold reduction, AB 4106 ([1]; compound at 3 μM): 512 fold | Colistin MIC fold reduction, AB 4106 [1, 2]: 2048 fold | MIC (AB 4106; Acinetobacter baumannii, 16 h): > 200 µM | Colistin potentiation activity in words, compared to IMD-0354 (AB4106 and KPB9): equipotent activity to IMD-0354

colistin [reference compound]
MIC of colistin alone, AB 3941 (AB 3941; absence of adjuvant): 1024 µg/mL | MIC of colistin alone, AB 3942 (AB 3942; absence of adjuvant): > 2048 µg/mL | MIC of colistin alone, AB 4112 (AB 4112; absence of adjuvant): 2048 µg/mL | MIC of colistin alone, AB 4119 (AB 4119; absence of adjuvant): 1024 µg/mL | MIC of colistin alone, AB 17978 mcr-1 (AB 17978 mcr-1; absence of adjuvant): 64 µg/mL

O=C(Nc1ccc(C(F)(F)F)cc1C(F)(F)F)c1cc(Cl)ccc1O [Compound 18]
Colistin MIC fold reduction, AB 4106 ([1]; compound at 1 μM): 256 fold | Colistin MIC fold reduction, AB 4106 ([1]; compound at 3 μM): 1024 fold | Colistin MIC fold reduction, AB 4106 [1, 2]: 1024 fold | MIC (AB 4106; Acinetobacter baumannii, 16 h): > 200 µM | Colistin potentiation activity in words, compared to IMD-0354 (AB4106 and KPB9): retained activity against KPB9 and AB4106 equivalent to IMD-0354
